Results from patent publication US8519004B2 (Repros Therapeutics Inc., priority 2005, dated 2013).
Where a name gives a salt, the structure may show the parent alone.

Legend:
[1] = Clinical chemistry and hematology parameters in male baboons; type: in vivo; conditions: for serum glucose: change with treatment; for ALT/SGPT: changes over the treatment period / end of the study; for serum carbon dioxide: day 12; for serum anion gap: day 12 and washout; for BUN and BUN/creatinine: during the study
Description: (§1) The samples analyzed were sera taken on the day of first treatment before being given test article (day 0), after 12 days of treatment (day 12) and 7 days after the last treatment (end or wash-out).

[2] = system: serum cholesterol; test: Serum cholesterol in male baboons; type: in vivo; conditions: 1.5 mg/kg for 12 days
Description: as §1

[3] = 50 mg dose; placebo group ratio 1.07
Protocol: (§2) Half of the men in each of the Androxal™ and placebo arms were randomized into cohorts that underwent in-clinic sessions on days 1 and 14 to determine pharmacokinetic parameters for Androxal™ as well as cyclical changes in testosterone. The placebo and Androxal™ doses were administered in a double blind fashion. The Androgel® cream was administered in an open label fashion. Half of the Androgel® patients underwent in-clinic sessions similar to the other patients in the study. Following the two week drug exposure patients were followed for an additional seven to ten days to determine the status of their testosterone levels.

[4] = system: serum total testosterone
Protocol: as §2

[5] = system: serum LH and FSH; conditions: during treatment
Protocol: as §2

[6] = system: serum testosterone; test: Serum testosterone in male baboons given Clomid, Enclomid or Zuclomid; type: in vivo; conditions: between day 12 and day 18 (washout)
Description: as §1

[7] = following a single dose; cited from earlier work

| SMILES | serum glucose [1] | ALT/SGPT [1] | serum carbon dioxide [1] | serum anion gap [1] | BUN and BUN/creatinine [1] | increase in serum cholesterol levels [2] | DHT/TT ratio [3] | serum total testosterone in the follow-up period ([4]; 7-10 days after cessation of daily oral treatment) | changes in testosterone from baseline testosterone levels ([4]; all doses) | serum total testosterone in follow-up, highest dose compared to the high dose of AndroGel 1% ([4]; follow-up period, p=0.017, t-test) | eosinophil count ([1]; 1.5 mg/kg for 12 days) | lymphocyte count ([1]; 1.5 mg/kg for 12 days) | red blood cell population ([1]; 1.5 mg/kg for 12 days) | serum creatinine ([1]; between day 0 and Day 12) | percent of granulocytes in the blood ([1]; very strong after the 7-day washout period) | serum levels of FSH [5] | serum levels of LH [5] | change in total serum testosterone after cessation of treatment [6] | duration of residual blood levels [7] |
| --- | --- | --- | --- | --- | --- | --- | --- | --- | --- | --- | --- | --- | --- | --- | --- | --- | --- | --- | --- |
| CCN(CC)CCOc1ccc(C(=C(Cl)c2ccccc2)c2ccccc2)cc1 [Clomid, clomiphene citrate] | within the normal range | out of range low | higher than reference values | lower values than the Enclomid group | altered | slight increase |  |  |  |  |  |  |  |  |  |  |  |  |  |
| CCN(CC)CCOc1ccc(/C(=C(\Cl)c2ccccc2)c2ccccc2)cc1 [Enclomid, trans-clomiphene] |  | within the normal range |  | raised this parameter towards normal values | altered |  | 0.83 | remained high | statistically significant changes in testosterone | significantly higher | raising the counts of lymphocytes and eosinophiles | increase in lymphocyte count | substantive effects on the red blood cell population | no differences between serum creatinine values | lowering the percent of granulocytes in the blood | statistically increase | statistically significant increase | significant drop in the level of total serum testosterone |  |
| CCN(CC)CCOc1ccc(/C(=C(/Cl)c2ccccc2)c2ccccc2)cc1 [Zuclomid, cis-clomiphene] | within the normal range | within the normal range | higher than reference values | lower values than the Enclomid group |  |  |  |  |  |  |  |  | substantive effects on the red blood cell population |  |  |  |  |  | in excess of one month |
